Experimental data reported in ChEMBL document CHEMBL1201862, “PubChem BioAssay data set” (2004).
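All cell lines were grown in 96-well plates and treated with compound for 48 hours. The concentration for 50% growth inhibition is given as GI50.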 Activity calls are given as the source filed them. No stated cut-off is given here; in the data, active = GI50 up to about 1.1 µM and inactive = higher.

Assays:
Assay in all cases: NCI-60 cell line screen, 48 h
[1] = system: 786-0
[2] = system: A498
[3] = system: ACHN
[4] = system: HCC 2998
[5] = system: HCT-15
[6] = system: MCF7
[7] = system: MDA-MB-435
[8] = system: MOLT-4
[9] = system: NCI-H226
[10] = system: NCI-H23
[11] = system: NCI-H460
[12] = system: OVCAR-8
[13] = system: RPMI-8226
[14] = system: SK-MEL-5
[15] = system: SN12C
[16] = system: SR
[17] = system: TK-10
[18] = system: U-251
[19] = system: UACC-62
[20] = system: UO-31

| Structure (SMILES) | GI50 [1] | GI50 [2] | GI50 [3] | GI50 [4] | GI50 [5] [µM] | GI50 [6] | GI50 [7] | GI50 [8] | GI50 [9] | GI50 [10] | GI50 [11] | GI50 [12] | GI50 [13] | GI50 [14] | GI50 [15] | GI50 [16] | GI50 [17] | GI50 [18] | GI50 [19] | GI50 [20] |
| --- | --- | --- | --- | --- | --- | --- | --- | --- | --- | --- | --- | --- | --- | --- | --- | --- | --- | --- | --- | --- |
| CCOc1ccc(NC2=CC(=O)C(=O)c3ccccc32)cc1 | 3.78 µM (inactive) | 3.61 µM (inactive) | 2.28 µM (inactive) | 13.1 µM (inactive) | 2.34 | 2.15 µM (inactive) | 1.8 µM (inactive) | 8.83 µM (inactive) | 4.86 µM (inactive) | 1.91 µM (inactive) | 2.47 µM (inactive) | 4.33 µM (inactive) | 4.47 µM (inactive) | 1.59 µM (inactive) | 1.82 µM (inactive) | 3.4 µM (inactive) | 8.32 µM (inactive) | 3.85 µM (inactive) | 1.72 µM (inactive) | 4.45 µM (inactive) |
| CN(C)CC1(Cc2ccccc2)CCC(Cc2ccccc2)C1=O (configuration not stated) | 2.07 µM (inactive) | 15.5 µM (inactive) | 16.1 µM (inactive) | 7.05 µM (inactive) | 5.21 | 5.15 µM (inactive) | 10.2 µM (inactive) | 2.88 µM (inactive) | 20.1 µM (inactive) | 18.1 µM (inactive) | 12.2 µM (inactive) | 5.73 µM (inactive) | 1.89 µM (inactive) | 13.7 µM (inactive) | 9.77 µM (inactive) | 4.47 µM (inactive) | 13.4 µM (inactive) | 17.5 µM (inactive) | 16.5 µM (inactive) | 16.9 µM (inactive) |
| CC[C@H]1C=CCC[C@@]2(C[C@@H]3CC[C@@H]4[C@H](C(=O)OCCCCCCCCCCCCCCCC(=O)O)[C@]5(CCC[C@@H](C)O5)NC(=[N+]34)N2)O1 [CRAMBESCIDIN 657] | 0.0964 µM (active) | 0.306 µM (active) | 0.175 µM (active) | 0.0973 µM (active) | 0.525 | 0.214 µM (active) | 0.141 µM (active) | 0.109 µM (active) | 0.273 µM (active) | 0.488 µM (active) | 0.188 µM (active) | 0.23 µM (active) | 0.109 µM (active) | 0.104 µM (active) | 0.418 µM (active) | 0.0521 µM (active) | 0.367 µM (active) | 0.183 µM (active) | 0.0927 µM (active) | 0.125 µM (active) |
| COc1ccc2c(c1)C(N)=C(c1ccccc1)C2=O | 80.4 µM (inactive) | > 100 µM (inactive) | 33.9 µM (inactive) | 81.8 µM (inactive) | > 100 | > 100 µM (inactive) | > 100 µM (inactive) | 58.5 µM (inactive) | 87.9 µM (inactive) | 38.8 µM (inactive) | > 100 µM (inactive) | 34.4 µM (inactive) | 96.4 µM (inactive) | 49.1 µM (inactive) | 99.3 µM (inactive) | 8.75 µM (inactive) | > 100 µM (inactive) | 94.4 µM (inactive) | > 100 µM (inactive) |  |
| O=[N+]([O-])/C=C1\COCc2cc3c(cc21)OCO3 | 19.3 µM (inactive) | 18.8 µM (inactive) | 20.8 µM (inactive) | 18 µM (inactive) | 19.1 | 18.5 µM (inactive) | 14.5 µM (inactive) | 24.5 µM (inactive) | 34 µM (inactive) | 12.1 µM (inactive) | 30.9 µM (inactive) | 27.8 µM (inactive) | 21.7 µM (inactive) | 19.6 µM (inactive) | 22.5 µM (inactive) | 18.9 µM (inactive) | 22.8 µM (inactive) | 18.6 µM (inactive) | 21.1 µM (inactive) | 18.9 µM (inactive) |
| COc1ccc2nc3ccc(OC)cc3c(SCCCl)c2c1 | 6.24 µM (inactive) | 31.1 µM (inactive) | 13.9 µM (inactive) | > 45.8 µM (inactive) | 12.7 | 2 µM (inactive) | 9.95 µM (inactive) | 2.79 µM (inactive) | > 48.4 µM (inactive) | 16 µM (inactive) | 33.9 µM (inactive) | 8.57 µM (inactive) | 2.95 µM (inactive) | 8.87 µM (inactive) | 12.2 µM (inactive) | 4.8 µM (inactive) | > 81.5 µM (inactive) | 18 µM (inactive) | 19.5 µM (inactive) | 32 µM (inactive) |
| O=[N+]([O-])c1ccc(Cl)c(/C=N/C23CC4CC(CC(C4)C2)C3)c1 | > 7.66 µM (inactive) | > 10 µM (inactive) | > 10 µM (inactive) | > 10 µM (inactive) | > 6.46 | 3.08 µM (inactive) | > 6.34 µM (inactive) | 5.18 µM (inactive) | > 10 µM (inactive) | > 10 µM (inactive) | > 10 µM (inactive) | 4 µM (inactive) | > 6.93 µM (inactive) | 3.5 µM (inactive) | > 10 µM (inactive) | 4.1 µM (inactive) | > 10 µM (inactive) | > 7.48 µM (inactive) | > 10 µM (inactive) | > 10 µM (inactive) |
| COc1cc2cc(C(=O)N3CC(CCl)c4c3cc(NC(=O)C(C)(C)c3ccccc3[N+](=O)[O-])c3ccccc43)[nH]c2c(OC)c1OC (configuration not stated) | 1.36 µM (inactive) | 0.78 µM (active) | 0.385 µM (active) | 6.15 µM (inactive) | 1.98 | 0.142 µM (active) | 1.75 µM (inactive) | 1.71 µM (inactive) | 5.14 µM (inactive) | 0.524 µM (active) | 0.158 µM (active) | 0.951 µM (active) | 173 µM (inactive) | 1.77 µM (inactive) | 4.23 µM (inactive) | 0.192 µM (active) | 8.87 µM (inactive) | 0.54 µM (active) | 3.32 µM (inactive) | 0.968 µM (active) |
| COc1cc(/C=N\O)nc(-c2ccccn2)c1 | 0.179 µM (active) | 1.3 µM (inactive) | 0.0923 µM (active) | 46.8 µM (inactive) | 0.092 | 0.474 µM (active) | 1.6 µM (inactive) | 0.173 µM (active) | 0.363 µM (active) | 0.51 µM (active) | 0.227 µM (active) | 0.2 µM (active) | 0.337 µM (active) | 0.298 µM (active) | 0.264 µM (active) | 0.0438 µM (active) | > 30.8 µM (inactive) | 0.553 µM (active) | 0.448 µM (active) | 0.161 µM (active) |
| Cc1cnc2nc(-c3ccc(F)cc3)cc(O)c2c1 | 32.5 µM (inactive) | 25.4 µM (inactive) | 57.5 µM (inactive) | 43.5 µM (inactive) | 7.66 | 47.5 µM (inactive) | 2.81 µM (inactive) | 34.1 µM (inactive) | 27.1 µM (inactive) | 41.3 µM (inactive) | 19.1 µM (inactive) | 66.4 µM (inactive) | 21.1 µM (inactive) | 26.6 µM (inactive) | 67.6 µM (inactive) | 5.14 µM (inactive) | 48 µM (inactive) | 23.1 µM (inactive) | 21.4 µM (inactive) | 48.2 µM (inactive) |
| Nc1nc(N)c2nc(CNc3ccc(C(=O)O)cc3)[nH]c2n1 | > 100 µM (inactive) | > 100 µM (inactive) | > 100 µM (inactive) | 27.9 µM (inactive) | > 100 | > 100 µM (inactive) | > 100 µM (inactive) | > 100 µM (inactive) | > 100 µM (inactive) | > 100 µM (inactive) | > 100 µM (inactive) | > 100 µM (inactive) | > 100 µM (inactive) | > 100 µM (inactive) | > 100 µM (inactive) | > 100 µM (inactive) | > 100 µM (inactive) | > 100 µM (inactive) | > 100 µM (inactive) | > 100 µM (inactive) |
| CC(=O)CC1(CBr)Nc2ccc([N+](=O)[O-])cc2NC1=O (configuration not stated) | 31.2 µM (inactive) | > 100 µM (inactive) | > 100 µM (inactive) | > 100 µM (inactive) | 82.6 | 40.9 µM (inactive) | > 100 µM (inactive) | 42.9 µM (inactive) | > 100 µM (inactive) | > 100 µM (inactive) | > 100 µM (inactive) | > 100 µM (inactive) | 44.3 µM (inactive) | > 100 µM (inactive) | 93.1 µM (inactive) | 34 µM (inactive) | 82.2 µM (inactive) | > 100 µM (inactive) | > 100 µM (inactive) | 61.9 µM (inactive) |
| COc1cc(C(=O)OC2CC34CCNC35CC(OC5(OC)C2O)c2cc3c(cc24)OCO3)ccc1O (configuration not stated) | > 100 µM (inactive) | > 100 µM (inactive) | > 100 µM (inactive) | > 100 µM (inactive) | > 100 | > 100 µM (inactive) | > 100 µM (inactive) | > 100 µM (inactive) | > 100 µM (inactive) | > 100 µM (inactive) | > 100 µM (inactive) | > 100 µM (inactive) | > 100 µM (inactive) | > 100 µM (inactive) | > 100 µM (inactive) | > 100 µM (inactive) | > 100 µM (inactive) | > 100 µM (inactive) | > 100 µM (inactive) |  |
| O=C(NNCc1ccco1)c1cc2ccccc2[nH]1 | > 51.5 µM (inactive) | > 100 µM (inactive) | > 54.7 µM (inactive) | > 36.9 µM (inactive) | > 87.5 | 0.133 µM (active) | > 85.5 µM (inactive) | > 100 µM (inactive) | > 100 µM (inactive) | > 61.9 µM (inactive) | > 71.4 µM (inactive) | > 53.1 µM (inactive) | > 100 µM (inactive) | > 100 µM (inactive) | > 61 µM (inactive) | > 78.9 µM (inactive) | > 58.1 µM (inactive) |  | > 100 µM (inactive) | > 74.6 µM (inactive) |
